This assay concerns the target CRBN truncate (318-426) (Homo sapiens (Human), UniProt Q96SW2). In words: Measurement of molecular interactions using surface plasmon resonance (SPR), Biacore T200. In kind it is binding. The following applies: 25° C., immobilized CRBN truncate, upper limit of measurement 200 μM. The method, then:
The instrument used was the Biacore T200 (manufactured by Cytiva). The CRBN truncate (318-426) was obtained by expressing a construct with an Avi-tag added at the C-terminus. The sensor chip used was Sensor Chip SA (manufactured by Cytiva). The CRBN truncate was immobilized using the affinity between SA (streptavidin) on the sensor chip and the Avi-tag. The running buffer was a mixture of 10 mM HEPES pH 7.5, 150 mM NaCl, 1 mM TCEP, 0.005% Tween 20, and 2% DMSO. […] Contact time and dissociation time were set at 60 seconds and 120 seconds, respectively.
CRBN truncate (318-426), sequence (Q96SW2 318-426): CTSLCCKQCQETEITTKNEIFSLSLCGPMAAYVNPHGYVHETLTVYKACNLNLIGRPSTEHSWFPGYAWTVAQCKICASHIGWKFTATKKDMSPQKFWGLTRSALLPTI
`CC(C)(C)OC(=O)c1ccc(N2CC[C@]3(CCCC(=O)NC3=O)CC2=O)cc1` [Example 223, tert-Butyl 4-(4,7,9-trioxo-3,8-diazaspiro [5.6]dodecan-3-yl) benzoate] yielded a Kd of less than 50 µM. Next, `Cn1c(=O)n(C2CCCC(=O)NC2=O)c(=O)c2ccc(Br)cc21` (centres unmarked) [Example 261, 7-Bromo-3-(2,7-dioxoazepan-3-yl)-1-methylquinazoline-2,4-dione]: 50 to 100 µM.

`Cc1sc2c(c1C)C(c1ccc(Cl)cc1)=N[C@@H](CC(=O)NCCCCCCCCN1CC3(CC(=O)N(C4CCC(=O)NC4=O)C3=O)C1)c1nnc(C)n1-2` (stereo partly drawn) [Example 309, 2-[(9S)-7-(4-chlorophenyl)-4,5,13-trimethyl-3-thia-1,8,11,12-tetraazatricyclo[8.3.0.02,6]trideca-2(6),4,7,10,12-pentaen-9-yl]-N-[8-[6-(2,6-dioxopiperidin-3-yl)-5,7-dioxo-2,6-diazaspiro[3.4]octan-2-yl]octyl]acetamide] had a Kd not below 100 µM.

`O=C1CCCC(n2nc(-c3ccccc3)ccc2=O)C(=O)N1` (centres unmarked) [Example 246, 3-(6-Oxo-3-phenylpyridazin-1-yl) azepane-2,7-dione] had a Kd of 50 to 100 µM. Next, `Nc1ccc2nc(N3CCCC(=O)NC3=O)sc2c1` [Example 118, 1-(6-Amino-1,3-benzothiazol-2-yl)-1,3-diazepane-2,4-dione]: not below 100 µM; `O=C1CCCC2(CCN(C(=O)c3ccccc3)C2)C(=O)N1` (centres unmarked) [Example 122, 2-Benzoyl-2,7-diazaspiro [4.6]undecane-6,8-dione]: not below 100 µM; `CC(=O)Nc1ccc(N2CCC3(CCCC(=O)NC3=O)C2)c(F)c1` (centres unmarked) [Example 88, N-[4-(6,8-dioxo-2,7-diazaspiro[4.6]undecan-2-yl)-3-fluorophenyl]acetamide]: not below 100 µM. Next, `CC(C)(C)OC(=O)c1ccc(OC2CCCC(=O)NC2=O)nc1` (centres unmarked) [Example 268, tert-Butyl 6-(2,7-dioxoazepan-3-yl) oxypyridine-3-carboxylate]: not below 100 µM; `Cc1sc2c(c1C)C(c1ccc(Cl)cc1)=N[C@@H](CC(=O)NCCCCCCCCCCC(=O)N1CCC(c3ccc(OC4CCCC(=O)NC4=O)cc3)CC1)c1nnc(C)n1-2` (some centres unmarked) [Example 356]: less than 50 µM. With `COC(=O)c1cc2c(N3CCC4(CCCC(=O)NC4=O)C3)ncnc2n1C` (centres unmarked) [Example 36, Methyl 4-(6,8-dioxo-2,7-diazaspiro[4.6]undecan-2-yl)-7-methyl-pyrrolo[2,3-d]pyrimidine-6-carboxylate] the figure was less than 50 µM. For `Nc1ccc(N2CCC(N3CCCC(=O)NC3=O)C2=O)cc1` (centres unmarked) [Example 297, 1-[1-(4-Aminophenyl)-2-oxopyrrolidin-3-yl]-1,3-diazepane-2,4-dione], the Kd is not below 100 µM. With `CC(C)(C)OC(=O)c1ccc(C2(F)CCCC(=O)NC2=O)cc1` (centres unmarked) [Example 243, tert-Butyl 4-(3-fluoro-2,7-dioxoazepan-3-yl) benzoate] the figure was not below 100 µM. Next, `O=C1CCC(N2C(=O)CC3(CN(C(=O)c4ccccc4)C3)C2=O)C(=O)N1` (centres unmarked) [Example 44-2, 2-Benzoyl-6-(2,6-dioxopiperidin-3-yl)-2,6-diazaspiro [3.4]octane-5,7-dione]: not below 100 µM. `CN1C(=O)C(C)(N2C=CCC(=O)NC2=O)c2ccc(/C=C/C(=O)OC(C)(C)C)cc21` (centres unmarked) [Example 288, tert-Butyl (E)-3-[3-(2,4-dioxo-5H-1,3-diazepin-1-yl)-1,3-dimethyl-2-oxoindolin-6-yl]prop-2-enoate]: the Kd is less than 50 µM. With `O=C1CCCC(Oc2ccccc2[N+](=O)[O-])C(=O)N1` (centres unmarked) [Example 66-1, 3-(2-Nitrophenoxy) azepane-2,7-dione] the figure was not below 100 µM; with `Cc1sc2c(c1C)C(c1ccc(Cl)cc1)=N[C@@H](CC(=O)NCCCCCCCNc1ccc(N3CCC(N4CCCC(=O)NC4=O)C3=O)cc1)c1nnc(C)n1-2` (stereo partly drawn) [Example 313, 2-[(9S)-7-(4-chlorophenyl)-4,5,13-trimethyl-3-thia-1,8,11,12-tetraazatricyclo[8.3.0.02,6]trideca-2(6),4,7,10,12-pentaen-9-yl]-N-[7-[4-[3-(2,4-dioxo-1,3-diazepan-1-yl)-2-oxopyrrolidin-1-yl]anilino]heptyl]acetamide], less than 50 µM; with `CC(C)(C)OC(=O)Cn1c(=O)n(C2CCCC(=O)NC2=O)c2ccccc21` (centres unmarked) [Example 138, tert-Butyl 2-[3-(2,7-dioxoazepan-3-yl)-2-oxo-benzimidazol-1-yl]acetate], 50 to 100 µM. With `CC(C)(C)OC(=O)c1ccc(N2CCC3(CCCC(=O)NC3=O)CC2=O)cc1` (centres unmarked) [Example 109, tert-Butyl 4-(4,7,9-trioxo-3,8-diazaspiro [5.6]dodecan-3-yl) benzoate] the figure was less than 50 µM; with `Cn1c(=O)n(C2CCCC(=O)NC2=O)c2cccc(C3=CCN(CC(=O)OC(C)(C)C)CC3)c21` (centres unmarked) [Example 222, tert-Butyl 2-[4-[1-(2,7-dioxoazepan-3-yl)-3-methyl-2-oxobenzimidazol-4-yl]-3,6-dihydro-2H-pyridin-1-yl]acetate], 50 to 100 µM; with `CC(C)(C)OC(=O)c1ccc(N2CCC3(CCCC(=O)NC3=O)CC2)nc1` [Example 94, tert-Butyl 6-(7,9-dioxo-3,8-diazaspiro [5.6]dodecan-3-yl) pyridine-3-carboxylate], 50 to 100 µM. With `CC(C)(C)OC(=O)NCCCCCCc1ccccc1C(=O)N1CCC2(CCCC(=O)NC2=O)C1` (centres unmarked) [Example 159, tert-ButylN-[6-[2-(6,8-dioxo-2,7-diazaspiro[4.6]undecane-2-carbonyl)phenyl]hexyl]carbamate] the figure was not below 100 µM; with `CC(C)(C)OC(=O)c1ccc(N2CC[C@@]3(CCCC(=O)NC3=O)CC2=O)cc1` [Example 224, tert-Butyl 4-(4,7,9-trioxo-3,8-diazaspiro [5.6]dodecan-3-yl) benzoate], not below 100 µM. As to `Cc1sc2c(c1C)C(c1ccc(Cl)cc1)=N[C@@H](CC(=O)NCCCCCCCCNC(=O)Cn1c(=O)n(C3CCCC(=O)NC3=O)c3ccccc31)c1nnc(C)n1-2` (stereo partly drawn) [Example 332, 2-[(9S)-7-(4-chlorophenyl)-4,5,13-trimethyl-3-thia-1,8,11,12-tetraazatricyclo[8.3.0.02,6]trideca-2(6),4,7,10,12-pentaen-9-yl]-N-[8-[[2-[3-(2,7-dioxoazepan-3-yl)-2-oxobenzimidazol-1-yl]acetyl]amino]octyl]acetamide], the Kd is less than 50 µM. `CC(C)(C)OC(=O)N1CCN(Cc2ccc(N3CCC4(CCCC(=O)NC4=O)C3)nc2)CC1` (centres unmarked) [Example 99, tert-Butyl 4-[[6-(6,8-dioxo-2,7-diazaspiro [4.6]undecan-2-yl)pyridin-3-yl]methyl]piperazine-1-carboxylate] showed a Kd not below 100 µM. With `O=C1CCCC(N2C(=O)OCc3cc([N+](=O)[O-])ccc32)C(=O)N1` (centres unmarked) [Example 274, 3-(6-Nitro-2-oxo-4H-3,1-benzoxazin-1-yl) azepane-2,7-dione] the figure was not below 100 µM; with `CC(C)(C)OC(=O)N1CCN(c2ccnc(N3CCC4(CCCC(=O)NC4=O)C3)c2)CC1` (centres unmarked) [Example 126, tert-Butyl 4-[2-(6,8-dioxo-2,7-diazaspiro [4.6]undecan-2-yl)-4-pyridyl]piperazine-1-carboxylate], not below 100 µM.

(Values after patent publication US20250388593A1 (MITSUBISHI TANABE PHARMA CORPORATION, priority 2023, published 2025).)
